≈ marks a conversion by molar mass, not a printed value.
Key:
Klebsiella pneumoniae = assay: In vitro antibacterial activity against Klebsiella pneumoniae ATCC 10031; assay type: functional
Pseudomonas aeruginosa [1] = assay: In vitro antibacterial activity against Pseudomonas aeruginosa […] 9027; assay type: functional
DNA gyrase = DNA gyrase (Escherichia coli, UniProt P0AES4+P0AES6); assay: Inhibitory effect against Escherichia coli Gyrase in Supercoiling assay; assay type: protein-complex assay
Staphylococcus aureus [2] = assay: In vitro antibacterial activity against Staphylococcus aureus CPX-R OBT 687; assay type: functional
Pseudomonas aeruginosa [3] = assay: In vitro antibacterial activity against Pseudomonas aeruginosa OBT 307; assay type: functional
Streptococcus pneumoniae = assay: In vitro antibacterial activity against Streptococcus pneumoniae I 0.43; assay type: functional
Staphylococcus aureus [4] = assay: In vitro antibacterial activity against Staphylococcus aureus M-R POMM 6214; assay type: functional
Enterococcus faecalis [5] = assay: In vitro antibacterial activity against Enterococcus faecalis LEP Br; assay type: functional
Escherichia coli [6] = assay: In vitro antibacterial activity against Escherichia coliCPX-R OBT 431; assay type: functional
Haemophilus influenzae = assay: In vitro antibacterial activity against Haemophilus influenzae; assay type: functional
Proteus mirabilis = assay: In vitro antibacterial activity against Proteus mirabilis OBT 505; assay type: functional
[7] = Mean MIC against gram negative; assay type: functional
Proteus vulgaris = assay: In vitro antibacterial activity against Proteus vulgaris CNUR 6; assay type: functional
Escherichia coli [8] = assay: In vitro antibacterial activity against Escherichia coli ATCC 25922; assay type: functional
Streptococcus pyogenes = assay: In vitro antibacterial activity against Streptococcus pyogenes OMNFI BI; assay type: functional
Staphylococcus aureus [9] = assay: In vitro antibacterial activity against Staphylococcus aureus ATCC 29213; assay type: functional
[10] = Mean MIC against gram positive; assay type: functional
Staphylococcus aureus [11] = assay: In vitro antibacterial activity against Staphylococcus aureus MPR 5; assay type: functional
Escherichia coli [12] = assay: In vitro antibacterial activity against Escherichia coli 120; assay type: functional
Enterococcus faecalis [13] = assay: In vitro antibacterial activity against Enterococcus faecalis UCMC 39690; assay type: functional
Enterobacter cloacae = assay: In vitro antibacterial activity against Enterobacter cloacae OMNFI 174; assay type: functional
[14] = Mean MIC Against gram positive; assay type: functional

MIC (Klebsiella pneumoniae) | MIC (Pseudomonas aeruginosa [1]) | IC50 (DNA gyrase) | MIC (Staphylococcus aureus [2]) | MIC (Pseudomonas aeruginosa [3]) | MIC (Streptococcus pneumoniae) | MIC (Staphylococcus aureus [4]) | MIC (Enterococcus faecalis [5]) | MIC (Escherichia coli [6]) | MIC (Haemophilus influenzae) | MIC (Proteus mirabilis) | MIC [7] | MIC (Proteus vulgaris) | MIC (Escherichia coli [8]) | MIC (Streptococcus pyogenes) | MIC (Staphylococcus aureus [9]) | MIC (Staphylococcus aureus [11]) | MIC (Escherichia coli [12]) | MIC (Enterococcus faecalis [13]) | MIC (Enterobacter cloacae) | Structure (SMILES) | other results
0.125 µg/mL (≈ 0.33 µM) | 4 µg/mL (≈ 10.6 µM) | 28.5 µM | 8 µg/mL (≈ 21.1 µM) | 8 µg/mL (≈ 21.1 µM) | 0.25 µg/mL (≈ 0.661 µM) | 0.25 µg/mL (≈ 0.661 µM) | 0.25 µg/mL (≈ 0.661 µM) | > 16 µg/mL | < 0.016 µg/mL | 4 µg/mL (≈ 10.6 µM) | 1.15 µg/mL (≈ 3.04 µM) | > 16 µg/mL | 0.25 µg/mL (≈ 0.661 µM) | 2 µg/mL (≈ 5.29 µM) | < 0.016 µg/mL | < 0.016 µg/mL | 0.25 µg/mL (≈ 0.661 µM) | 0.06 µg/mL (≈ 0.159 µM) | 1 µg/mL (≈ 2.64 µM) | O=C(O)c1cn(C2CC2)c2cc(N3CCc4ccccc4C3)c(F)cc2c1=O | MIC [10]: 0.21 µg/mL (≈ 0.555 µM)
< 0.016 µg/mL | 4 µg/mL (≈ 12.1 µM) | 97.2 µM | > 16 µg/mL | 4 µg/mL (≈ 12.1 µM) | 1 µg/mL (≈ 3.03 µM) | 0.25 µg/mL (≈ 0.757 µM) | 0.5 µg/mL (≈ 1.51 µM) | > 16 µg/mL | < 0.016 µg/mL | 2 µg/mL (≈ 6.05 µM) | 0.71 µg/mL (≈ 2.15 µM) | > 16 µg/mL | 0.125 µg/mL (≈ 0.378 µM) | 8 µg/mL (≈ 24.2 µM) | 0.03 µg/mL (≈ 0.0908 µM) | 0.03 µg/mL (≈ 0.0908 µM) | 0.25 µg/mL (≈ 0.757 µM) | 0.25 µg/mL (≈ 0.757 µM) | 0.5 µg/mL (≈ 1.51 µM) | O=C(O)c1cn(C2CC2)c2cc(N3CCCCC3)c(F)cc2c1=O | MIC [14]: 0.495 µg/mL (≈ 1.5 µM)
